The record followed here is US20250270209A1 (INTERLINE THERAPEUTICS, INC., priority 2022, published 2025).

The structures appear in SMILES notation. pIC50: −log10 of the molar value.

For experiment [1], the target named is LRRK2 wild type enzyme (Homo sapiens, UniProt Q5S007). As to the kind of experiment: Biochemical Assay: LRRK2 TR-FRET (LanthaScreen) kinase assay with LRRKtide substrate. Conditions: LRRK2 Inhibition, Table 8. The procedure:
10 mM compound solution was prepared in DMSO. An 11-point, 3-fold dilution was performed, with highest concentration at 10 μM. A 10 mM compound DMSO solution was added to Labcyte LDV plate and the compound concentration of source plate was 10 mM. The 1st compound concentration of Inter plate(Labcyte 384 well PP plate) was 4.938×10^−1 mM which was prepared by transferring 1.5 μL of 10 mM compound from source plate to 28.9 μL DMSO. The 2nd compound concentration of Inter plate was 1.829×10^−2 mM which was prepared by transferring 60 nL of 10 mM compound from source plate to 32.7 μL DMSO. The 3rd compound concentration of Inter plate was 6.774×10^−4 mM which was prepared by transferring 2.5 nL of 10 mM compound from source plate to 36.9 μL DMSO. 100 nL of reference compound was dispensed in column 1 for low control wells and 100 nL of DMSO in column 24 for high control wells. Compounds were dispensed to column 2 to 23 of assay plate and backfilled with DMSO to a total volume of 100 nL.
A 2X LRRK2 enzyme solution (final concentration 3 nM) was prepared in assay buffer (Tris-HCl pH8.0:50 mM, MgCl2: 5 mM, EDTA: 1 mM, Brij-35:0.01%, 2 mM DTT). A 2× substrate solution was prepared: LRRK2 tide substrate (final concentration 400 nM) and ATP (final concentration 25 μM) in assay buffer. 5 μL 2× LRRK2 enzyme solution was dispensed to each well in assay plate by Multidrop. Assay plate was spun at 1,000 rpm for 1 min and incubated for 15 min at 23° C. 5 μL 2× ATP/LRRKtide solution was dispensed to each well in assay plate by Multidrop. Assay plate was spun at 1,000 rpm for 1 min and incubated for 120 min at 23° C.
(§1) A 2× detection solution was prepared: Tb-pERM (pLRRKtide) antibody (final concentration 0.25 nM) and EDTA (final concentration 10 mM) in TR-FRET dilution buffer. 10 μL 2× detection solution was dispensed to each well in assay plate to stop kinase reaction by Multidrop. Assay plate was spun at 1,000 rpm for 1 min and incubate for 30 min at 23° C. Assay plate was then read on Envision configured for LanthaScreen® TR-FRET. pS935 LRRK2 Cell Assay
(In TR-FRET formats the signal depends on donor and acceptor labels being close together.)

The target of experiment [2] is T1, wild type LRRK2 overexpressed in recombinant HEK-293T cells (Homo sapiens, UniProt Q5S007).
T1 construct: host or cells: HEK293T (transient transfection with pCMV-LRRK2 WT plasmid)
T1 sequence (Q5S007 whole entry): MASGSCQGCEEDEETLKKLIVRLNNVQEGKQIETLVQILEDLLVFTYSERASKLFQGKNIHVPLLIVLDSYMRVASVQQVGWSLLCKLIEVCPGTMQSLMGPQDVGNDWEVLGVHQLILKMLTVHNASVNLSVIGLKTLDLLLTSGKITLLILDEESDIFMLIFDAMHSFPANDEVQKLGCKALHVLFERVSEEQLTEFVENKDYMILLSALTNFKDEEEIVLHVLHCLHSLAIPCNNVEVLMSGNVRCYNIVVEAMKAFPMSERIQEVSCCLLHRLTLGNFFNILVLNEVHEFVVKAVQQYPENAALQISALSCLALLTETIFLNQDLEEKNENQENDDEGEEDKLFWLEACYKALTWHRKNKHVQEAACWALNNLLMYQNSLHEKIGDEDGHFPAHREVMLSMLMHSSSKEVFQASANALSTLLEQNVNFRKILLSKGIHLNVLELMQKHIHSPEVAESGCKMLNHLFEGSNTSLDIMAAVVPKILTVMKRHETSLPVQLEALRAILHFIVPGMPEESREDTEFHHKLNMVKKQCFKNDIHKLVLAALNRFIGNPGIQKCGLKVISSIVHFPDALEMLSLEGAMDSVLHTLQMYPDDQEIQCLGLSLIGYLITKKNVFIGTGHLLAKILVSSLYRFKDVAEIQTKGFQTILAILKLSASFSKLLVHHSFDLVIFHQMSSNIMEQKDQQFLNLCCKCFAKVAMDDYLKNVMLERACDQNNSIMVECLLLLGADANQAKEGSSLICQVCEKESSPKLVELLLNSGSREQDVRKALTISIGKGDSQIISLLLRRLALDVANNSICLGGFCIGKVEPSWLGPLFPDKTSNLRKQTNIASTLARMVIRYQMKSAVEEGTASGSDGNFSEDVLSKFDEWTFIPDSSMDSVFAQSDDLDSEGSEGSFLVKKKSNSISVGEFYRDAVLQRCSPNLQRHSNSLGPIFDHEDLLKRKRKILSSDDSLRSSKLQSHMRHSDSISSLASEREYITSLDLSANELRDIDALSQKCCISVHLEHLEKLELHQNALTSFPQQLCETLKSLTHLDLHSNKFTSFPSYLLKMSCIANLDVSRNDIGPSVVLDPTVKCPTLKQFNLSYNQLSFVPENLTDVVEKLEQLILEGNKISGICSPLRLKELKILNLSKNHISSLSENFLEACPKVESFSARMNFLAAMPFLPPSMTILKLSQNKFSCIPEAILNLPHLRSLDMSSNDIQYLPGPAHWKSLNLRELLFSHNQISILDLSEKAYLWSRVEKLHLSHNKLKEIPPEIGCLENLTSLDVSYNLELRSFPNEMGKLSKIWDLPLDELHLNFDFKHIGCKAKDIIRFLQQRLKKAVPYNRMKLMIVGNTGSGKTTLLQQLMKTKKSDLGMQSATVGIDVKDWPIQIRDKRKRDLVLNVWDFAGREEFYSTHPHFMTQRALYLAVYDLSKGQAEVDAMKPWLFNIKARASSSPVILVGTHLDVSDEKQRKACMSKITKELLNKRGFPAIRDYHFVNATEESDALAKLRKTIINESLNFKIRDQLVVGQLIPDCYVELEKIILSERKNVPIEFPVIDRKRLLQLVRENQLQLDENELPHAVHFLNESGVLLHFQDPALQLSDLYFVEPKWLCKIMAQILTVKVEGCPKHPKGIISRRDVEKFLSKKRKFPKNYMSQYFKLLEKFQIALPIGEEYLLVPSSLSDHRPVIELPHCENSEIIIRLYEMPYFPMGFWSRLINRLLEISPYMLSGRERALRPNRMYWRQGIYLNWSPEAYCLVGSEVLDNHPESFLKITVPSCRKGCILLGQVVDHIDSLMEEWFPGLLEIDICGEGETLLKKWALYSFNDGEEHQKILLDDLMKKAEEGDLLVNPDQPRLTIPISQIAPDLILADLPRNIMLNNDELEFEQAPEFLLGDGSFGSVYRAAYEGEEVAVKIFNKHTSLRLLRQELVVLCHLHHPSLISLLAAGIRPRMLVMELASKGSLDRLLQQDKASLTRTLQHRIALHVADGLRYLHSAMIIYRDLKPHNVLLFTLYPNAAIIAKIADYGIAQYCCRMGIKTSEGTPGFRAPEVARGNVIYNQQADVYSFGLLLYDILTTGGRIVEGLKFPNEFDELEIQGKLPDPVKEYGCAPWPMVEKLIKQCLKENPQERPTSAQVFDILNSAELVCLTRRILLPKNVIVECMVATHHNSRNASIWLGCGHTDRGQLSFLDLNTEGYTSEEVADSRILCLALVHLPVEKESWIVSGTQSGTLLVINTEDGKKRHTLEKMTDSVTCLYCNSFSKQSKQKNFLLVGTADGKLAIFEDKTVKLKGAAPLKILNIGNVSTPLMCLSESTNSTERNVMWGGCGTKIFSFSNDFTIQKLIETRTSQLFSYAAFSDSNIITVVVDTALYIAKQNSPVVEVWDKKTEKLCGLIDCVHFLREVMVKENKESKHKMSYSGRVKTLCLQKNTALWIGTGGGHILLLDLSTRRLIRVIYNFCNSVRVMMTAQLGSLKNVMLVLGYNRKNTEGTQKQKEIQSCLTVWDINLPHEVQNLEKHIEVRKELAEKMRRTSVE
As to the kind of experiment: pS935 LRRK2 Cell Assay (HTRF, phospho-LRRK2 Ser935). In kind it is cell-based. The conditions noted are these: LRRK2 Inhibition, Table 8, 2 hours compound incubation. The procedure:
as §1
The following protocol describes an in-vitro method for measuring phosphorylation at Ser935 on wild type LRRK2 overexpressed in recombinant HEK-293T cells. The method is based on HTRF technology, which combines Fluorescence Resonance Energy Transfer (FRET) with Time-Resolved measurement (TR). Phospho-LRRK2 (Ser935) is detected in a sandwich assay format using two different specific antibodies, one labelled with Eu3+-Cryptate (donor) and the second with d2(acceptor).When the fluorophores are in close proximity, excitation of the donor with a light source (flash lamp) stimulates FRET to the acceptor, which in turn fluoresces at a specific wavelength (665 nm). The fluorescence emission at 615 nm from the donor is also measured to allow ratiometric reduction of data. The specific signal is proportional to phospho-LRRK2 (Ser935).
Plasmid transient transfection: DMEM medium, FBS, DPBS, Trans-IT, OPTI-MEM reagents were allowed to warm to room temperature. HEK293T cells were cultured in DMEM +10% FBS complete medium in T150 flasks till around 80% confluency before transfection. Then cells were washed with 10 mL PBS and detached with 3 mL 0.25% typinsin. 30×10E6 HEK293T cells were seeded in DMEM +10% FBS complete medium to a 15 cm dish.
DNA, TransIT-LT1, OPTI-MEM complex were prepared: […] OPTI-MEM was added to a 15 mL cone tube, then […] plasmid was added to OPTI-MEM and mixed, followed by addition of 60 μL TransIT-LT1 to the plasmid OPTI-MEM mixture and mixing. The resulting mixture was incubated for 15 minutes.
The above plasmid, DNA and OPTI-MEM mixture was added dropwise to the 15 cm dish, ensuring the drops were evenly distributed. The culture dish was gently rocked back and forth and from left to right to evenly distribute the complex. The tranfected dish was incubated for 24 hours at 37° C., and 5% CO2.
Transfected HEK293T was collected in the 15 cm dish. Media was aspirated from tissue culture dish, and washed by dispensing 10 mL 1× DPBS into 15 cm dish. 1× DPBS was aspirated and 3 mL trypsin was dispensed to 15 cm dish. The dish was incubated with trypsin at room temperature for 3 min until the cells were detached. 10 mL of DMEM +10% FBS medium were added to 15 cm dish and triturated to ensure homogenous cell suspensions.
Homogenous cell suspensions were transferred to a 50 mL tube, and centrifuged for 5 minutes at 1,000 rmp/min. The supernatant was aspirated and resuspended with 20 mL complete medium. 1 mL of cell suspension was transferred for cell counting. The cell suspension was diluted to 2× 10E5 cells/ml. 50 μL cell suspensions were added to a 384-well plate. The plate was quick spun at 800 rpm for 1 minute, then incubate overnight at 37° C., 5% CO2.
Compound dispensing: compound was diluted (10 mM DMSO stock solution) and added to assay plate (top concentration: 10 μM, 3 fold serial dilution, 9 doses) with duplicates by Tecan liquid handler. The DMSO concentration of each well was normalized to 0.2%. Plates were quick spun at 1,000 rpm for 1 minute. Plates were incubated at 37° C., 5% CO2 for 2 hours.
1× lysis buffer solution supplemented with blocking reagent was prepared (e.g. 1 mL lysis buffer 4X+3 mL water+40 μL stock blocking reagent 100X). Antibodies working solution was prepared by diluting 40-fold d2 and Cryptate antibodies with detection buffer(e.g. 1520 μL detection buffer+40 μL d2-antibody stock solution+[…] Cryptate-antibody stock solution).
After 2 hours incubation, cell plates were taken out from the incubator. […]

LRRK2 wild type enzyme, sequence (Q5S007 whole entry): as above

`C[C@@H]1C[C@H](n2c(CC(=O)Nc3cccnc3)nc3cnc4ccc(C#N)cc4c32)CCO1` [Compound 320, N-3-pyridyl{3-[(2R,4R)-2-methyltetrahydro-2H-pyran-4-yl]-12-cyano-3,5,8-triazatricyclo[7.4.0.0^2,6]trideca-1(9),2(6),4,7,10,12-hexaen-4-yl}acetamide]: the pIC50 was 9.24 in experiment [1] and 8.20 in experiment [2].
Taken in the same sequence, the figures for `C[C@@H]1C[C@H](n2c(C3CN(S(=O)(=O)C4CC4)C3)nc3cnc4ccc(C#N)cc4c32)CCO1` [Compound 66, 2-[1-(cyclopropanesulfonyl)azetidin-3-yl]-1-[(2R,4R)-2-methyloxan-4-yl]-1H-imidazo[4,5-c]quinoline-8-carbonitrile] were 8.47 and 6.28.
Taken in the same sequence, the figures for `CC(C)n1cc(NC(=O)Cc2nc3cnc4ccc(C#N)cc4c3n2[C@@H]2CCO[C@H](C)C2)cn1` [Compound 306, N-(1-isopropyl-4-pyrazolyl){3-[(2R,4R)-2-methyltetrahydro-2H-pyran-4-yl]-12-cyano-3,5,8-triazatricyclo[7.4.0.0^2,6]trideca-1(13),2(6),4,7,9,11-hexaen-4-yl}acetamide] were 9.14 and 7.80.
Taken in the same sequence, the figures for `C[C@@H]1C[C@H](n2c(CNS(=O)(=O)C3CC3)nc3cnc4ccc(C#N)cc4c32)CCO1` [Compound 22, N-({8-cyano-1-[(2R,4R)-2-methyloxan-4-yl]-1H-imidazo[4,5-c]quinolin-2-yl}methyl)cyclopropanesulfonamide] were 8.17 and 6.27.
On to `COCCCNC(=O)Cc1nc2cnc3ccc(C#N)cc3c2n1[C@@H]1CCO[C@H](C)C1` [Compound 166, 2-{8-cyano-1-[(2R,4R)-2-methyloxan-4-yl]-1H-imidazo[4,5-c]quinolin-2-yl}-N-(3-methoxypropyl)acetamide], for which the values for the pIC50 in experiment [1] and in experiment [2] were 9.44 and 7.92, respectively.
Taken in the same sequence, the figures for `C[C@@H]1C[C@H](n2c(CC(=O)NC3(C)COC3)nc3cnc4ccc(Cl)cc4c32)CCO1` [Compound 323, N-(3-methyl-3-oxetanyl){3-[(2R,4R)-2-methyltetrahydro-2H-pyran-4-yl]-12-chloro-3,5,8-triazatricyclo[7.4.0.0^2,6]trideca-1(9),2(6),4,7,10,12-hexaen-4-yl}acetamide] were 8.57 and 7.11.
Regarding `C[C@@H]1C[C@H](n2c(CC(=O)Nc3cccn(CCO)c3=O)nc3cnc4ccc(C#N)cc4c32)CCO1` [Compound 225, N-[1-(2-hydroxyethyl)-2-oxo-1,2-dihydro-3-pyridyl]{3-[(2R,4R)-2-methyltetrahydro-2H-pyran-4-yl]-12-cyano-3,5,8-triazatricyclo[7.4.0.0^2,6]trideca-1,4,6,8,10,12-hexaen-4-yl}acetamide], the pIC50 is 9.41 in experiment [1] and 6.98 in experiment [2].
Taken in the same sequence, the figures for `Cc1nc(NC(=O)Cc2nc3cnc4ccc(C#N)cc4c3n2[C@@H]2CCO[C@H](C)C2)no1` [Compound 368, N-(5-methyl-1,2,4-oxadiazol-3-yl){3-[(2R,4R)-2-methyltetrahydro-2H-pyran-4-yl]-12-cyano-3,5,8-triazatricyclo[7.4.0.0^2,6]trideca-1(9),2(6),4,7,10,12-hexaen-4-yl}acetamide] were 9.29 and 7.78.
Taken in the same sequence, the figures for `C[C@@H]1C[C@H](n2c(CC3CN(C(=O)c4ccccn4)C3)nc3cnc4ccc(C#N)cc4c32)CCO1` [Compound 56, 1-[(2R,4R)-2-methyloxan-4-yl]-2-{[1-(pyridine-2-carbonyl)azetidin-3-yl]methyl}-1H-imidazo[4,5-c]quinoline-8-carbonitrile] were 8.62 and 6.80.
Taken in the same sequence, the figures for `C[C@@H]1C[C@H](n2c(C3CCC(=O)N(CC4CC4)C3)nc3cnc4ccc(C#N)cc4c32)CCO1` (stereo partly drawn) [Compound 50, 2-[1-(cyclopropylmethyl)-6-oxopiperidin-3-yl]-1-[(2R,4R)-2-methyloxan-4-yl]-1H-imidazo[4,5-c]quinoline-8-carbonitrile] were 8.12 and 6.06.
Turning to `Cc1cc(CNC(=O)Cc2nc3cnc4ccc(C#N)cc4c3n2[C@@H]2CCO[C@H](C)C2)no1` [Compound 176, 2-{8-cyano-1-[(2R,4R)-2-methyloxan-4-yl]-1H-imidazo[4,5-c]quinolin-2-yl}-N-[(5-methyl-1,2-oxazol-3-yl)methyl]acetamide], the negative-log IC50 (pIC50) in experiment [1] is 9.49; in experiment [2], 8.25.
Taken in the same sequence, the figures for `COc1ncnc(C)c1NC(=O)Cc1nc2cnc3ccc(C#N)cc3c2n1[C@@H]1CCO[C@H](C)C1` [Compound 204, N-(4-methoxy-6-methyl-5-pyrimidinyl){3-[(2R,4R)-2-methyltetrahydro-2H-pyran-4-yl]-12-cyano-3,5,8-triazatricyclo[7.4.0.0^2,6]trideca-1,4,6,8,10,12-hexaen-4-yl}acetamide] were 9.33 and 8.18.
Taken in the same sequence, the figures for `C[C@@H]1C[C@H](n2c(CC(=O)Nc3nccc(C(F)(F)F)n3)nc3cnc4ccc(C#N)cc4c32)CCO1` [Compound 361, N-[4-(trifluoromethyl)-2-pyrimidinyl]{3-[(2R,4R)-2-methyltetrahydro-2H-pyran-4-yl]-12-cyano-3,5,8-triazatricyclo[7.4.0.0^2,6]trideca-1(9),2(6),4,7,10,12-hexaen-4-yl}acetamide] were 9.34 and 8.37.
Taken in the same sequence, the figures for `C[C@@H]1C[C@H](n2c([C@@H]3CN(CC4CC4)S(=O)(=O)C3)nc3cnc4ccc(C#N)cc4c32)CCO1` [Compound 1, 2-[(4S)-2-(cyclopropylmethyl)-1,1-dioxo-1X^6,2-thiazolidin-4-yl]-1-[(2R,4R)-2-methyloxan-4-yl]-1H-imidazo[4,5-c]quinoline-8-carbonitrile] were 8.61 and 6.77.

For orientation: pIC50 means the negative decadic logarithm of the IC50, by convention in mol/L.
